In patent publication US20130123222A1, “Synergistic Anti-Cancer Activity of SR16388 with Anti-Mitotic Drugs” (SRI INTERNATIONAL, INC., priority 2011, published 2013):

Tests used:
Test in all cases: 11×7 synergism hit rate
Assay type in all cases: cell-based
[1] = system: 7860; settings: Renal Cancer 7860, combination with SR16388
From the text: (§1) SR16388 was synthesized in house.
(§2) Within the same type of cancer cells, some cell lines have more synergistic hits than others. Melanoma and breast cancer cell lines had the highest hit rate.

[2] = system: ACHN; settings: Renal Cancer ACHN, combination with SR16388
From the text: as §1, §2

[3] = system: CAKI1; settings: Renal Cancer CAKI1, combination with SR16388
From the text: as §1, §2

[4] = system: CCRFCEM; settings: Leukemia CCRFCEM, combination with SR16388
From the text: as §1, §2

[5] = system: COLO205; settings: Colon Cancer COLO205, combination with SR16388
From the text: as §1, §2

[6] = system: DU145; settings: Prostate Cancer DU145, combination with SR16388
From the text: as §1, §2

[7] = system: HCT15; settings: Colon Cancer HCT15, combination with SR16388
From the text: as §1, §2

[8] = system: HL60; settings: Leukemia HL60, combination with SR16388
From the text: as §1, §2

[9] = system: HOP62; settings: NSCLC HOP62, combination with SR16388
From the text: as §1, §2

[10] = system: HOP92; settings: NSCLC HOP92, combination with SR16388
From the text: as §1, §2

[11] = system: HS578T; settings: Breast Cancer HS578T, combination with SR16388
From the text: as §1, §2

[12] = system: K562; settings: Leukemia K562, combination with SR16388
From the text: as §1, §2

[13] = system: KM12; settings: Colon Cancer KM12, combination with SR16388
From the text: as §1, §2

[14] = system: LOXIMVI; settings: Melanoma LOXIMVI, combination with SR16388
From the text: as §1, §2

[15] = system: MALME; settings: Melanoma MALME, combination with SR16388
From the text: as §1, §2

[16] = system: MCF7; settings: Breast Cancer MCF7, combination with SR16388
From the text: as §1, §2

[17] = system: MDAMB231; settings: Breast Cancer MDAMB231, combination with SR16388
From the text: as §1, §2

[18] = system: MDAMB435; settings: Melanoma MDAMB435, combination with SR16388
From the text: as §1, §2

[19] = system: MDAMB468; settings: Breast Cancer MDAMB468, combination with SR16388
From the text: as §1, §2

[20] = system: NCIH23; settings: NSCLC NCIH23, combination with SR16388
From the text: as §1, §2

[21] = system: NCIH322M; settings: NSCLC NCIH322M, combination with SR16388
From the text: as §1, §2

[22] = system: NCIH460; settings: NSCLC NCIH460, combination with SR16388
From the text: as §1, §2

[23] = system: OVCAR3; settings: Ovarian Cancer OVCAR3, combination with SR16388
From the text: as §1, §2

[24] = system: OVCAR5; settings: Ovarian Cancer OVCAR5, combination with SR16388
From the text: as §1, §2

[25] = system: PCS; settings: Prostate Cancer PCS, combination with SR16388
From the text: as §1, §2

[26] = system: SF295; settings: CNS Cancer SF295, combination with SR16388
From the text: as §1, §2

[27] = system: SKMEL28; settings: Melanoma SKMEL28, combination with SR16388
From the text: as §1, §2

[28] = system: SKMEL5; settings: Melanoma SKMEL5, combination with SR16388
From the text: as §1, §2

[29] = system: SKOV3; settings: Ovarian Cancer SKOV3, combination with SR16388
From the text: as §1, §2

[30] = system: SN12C; settings: Renal Cancer SN12C, combination with SR16388
From the text: as §1, §2

[31] = system: SNB19; settings: CNS Cancer SNB19, combination with SR16388
From the text: as §1, §2

[32] = system: SR; settings: Leukemia SR, combination with SR16388
From the text: as §1, §2

[33] = system: SW620; settings: Colon Cancer SW620, combination with SR16388
From the text: as §1, §2

[34] = system: T47D; settings: Breast Cancer T47D, combination with SR16388
From the text: as §1, §2

[35] = system: TK10; settings: Renal Cancer TK10, combination with SR16388
From the text: as §1, §2

[36] = system: U251; settings: CNS Cancer U251, combination with SR16388
From the text: as §1, §2

[37] = system: UACC257; settings: Melanoma UACC257, combination with SR16388
From the text: as §1, §2

[38] = system: UACC62; settings: Melanoma UACC62, combination with SR16388
From the text: as §1, §2

[39] = system: HCT116; settings: Colon Cancer HCT116, combination with SR16388
From the text: as §1, §2

Structure (SMILES) | % Hit rate [1] [%] | % Hit rate [2] [%] | % Hit rate [3] [%] | % Hit rate [4] [%] | % Hit rate [5] [%] | % Hit rate [6] [%] | % Hit rate [7] [%] | % Hit rate [8] [%] | % Hit rate [9] [%] | % Hit rate [10] [%] | % Hit rate [11] [%] | % Hit rate [12] [%] | % Hit rate [13] [%] | % Hit rate [14] [%] | % Hit rate [15] [%] | % Hit rate [16] [%] | % Hit rate [17] [%] | % Hit rate [18] [%] | % Hit rate [19] [%] | % Hit rate [20] [%] | other results
CC(=O)O[C@H]1C(=O)[C@@]2(C)[C@H]([C@H](OC(=O)c3ccccc3)[C@]3(O)C[C@H](OC(=O)[C@H](O)[C@@H](NC(=O)c4ccccc4)c4ccccc4)C(C)=C1C3(C)C)[C@]1(OC(C)=O)CO[C@@H]1C[C@@H]2O [Paclitaxel] | 22 | 14 | 22 | 14 | 17 | 3 | 14 | 25 | 1 | 10 | 23 | 12 | 10 | 13 | 14 | 31 | 21 | 12 | 8 | 4 | % Hit rate [21]: 17%; % Hit rate [22]: 35%; % Hit rate [23]: 8%; % Hit rate [24]: 6%; % Hit rate [25]: 0%; % Hit rate [26]: 8%; % Hit rate [27]: 35%; % Hit rate [28]: 12%; % Hit rate [29]: 18%; % Hit rate [30]: 13%; % Hit rate [31]: 27%; % Hit rate [32]: 1%; % Hit rate [33]: 9%; % Hit rate [34]: 19%; % Hit rate [35]: 13%; % Hit rate [36]: 12%; % Hit rate [37]: 35%; % Hit rate [38]: 25%
CC[C@]1(O)C[C@H]2CN(CCc3c([nH]c4ccccc34)[C@@](C(=O)OC)(c3cc4c(cc3OC)N(C=O)[C@H]3[C@@](O)(C(=O)OC)[C@H](OC(C)=O)[C@]5(CC)C=CCN6CC[C@]43[C@@H]65)C2)C1 [Vincristine] | 18 | 8 | 13 | 8 | 14 | 1 | 9 | 5 | 0 | 8 | 17 | 8 | 6 | 5 | 14 | 25 | 17 | 6 | 5 | 4 | % Hit rate [39]: 6%; % Hit rate [21]: 18%; % Hit rate [22]: 19%; % Hit rate [23]: 3%; % Hit rate [24]: 1%; % Hit rate [25]: 1%; % Hit rate [26]: 21%; % Hit rate [27]: 22%; % Hit rate [28]: 14%; % Hit rate [29]: 19%; % Hit rate [30]: 14%; % Hit rate [31]: 27%; % Hit rate [32]: 0%; % Hit rate [33]: 5%; % Hit rate [34]: 16%; % Hit rate [35]: 14%; % Hit rate [36]: 4%; % Hit rate [37]: 25%; % Hit rate [38]: 23%
